Experimental findings from a melting point compilation (Tetko et al.; mined from patent text by program, amines drawn as free bases though some values may be those of a salt) are described below.

Molecules are shown by their SMILES. Where only a bound is given, the exact number is not on record here.

The melting point is the temperature of the solid-liquid transition. Turning to `CNC(=O)c1cc(NC(=O)c2ccc(C)c(Nc3nccc(-c4cccnc4)n3)c2)cc(C(F)(F)F)c1`, the melting point fell in the range of 245 to 249 °C. To `Cc1cccc(P(c2cccs2)c2cccs2)c1-c1c(C)cccc1P(c1cccs1)c1cccs1` belongs 177 to 178 °C. As for `O=C(O)c1cccc(Oc2ccc(C(F)(F)F)cn2)c1`, the figure is 146 °C. As for `CCOC(=O)Cc1c(C)c2ccc(O)cc2oc1=O`, the figure is 167 to 168 °C.

In turn, `N#CCC(=O)c1nn(-c2ccccc2)c2c1Cc1ccccc1-2` had a melting point of 189 to 190 °C. To `O=C(Nc1nnn[nH]1)c1oc2ccc(Cl)cc2c1OCC1CC1` belongs 243 to 244 °C. To `CCCCc1nc(Cl)c(CO)n1Cc1ccc(NC(=O)C(NC(=O)OC(C)(C)C)C(=O)O)cc1` (racemic) belongs 144 to 147 °C; to `CCCCOc1c(NCc2ccc(C#N)cc2Cl)c(=O)c1=O`, 148 to 149 °C; to `CC(C)(C)c1cc(CCc2ccccc2NC(=O)NC2CCN(Cc3ccc(Cl)cc3)CC2)cc(C(C)(C)C)c1O`, 184 to 185 °C. To `COc1ccc(/C=C/c2nc3c(c(=O)n(C)c(=O)n3C)n2C)c(OC)c1` belongs 242 °C; to `CNC(=O)C(Cc1ccc(OC)cc1)NC(=O)CC(SC(C)=O)C(CC(C)C)C(N)=O` (configuration not stated), 235 to 240 °C; to `COc1ccc(C(=O)C2=C(O)C(=O)N(c3nncs3)C2c2ccc(C(C)(C)C)cc2)cc1` (configuration not stated), 289 to 291 °C.

`COc1ccc(S(=O)(=O)N2C(=O)C(OC(=O)Oc3ccccc3)(c3ccccc3OC(F)(F)F)c3cc(Cl)ccc32)c(OC)c1` (configuration not stated) came in with a melting point of 203 to 204 °C.

The molecule `CCCCCCCCCCCCCCCCCCOCCSCCO` gave a melting point of 58 to 59 °C.

In turn, `Cc1c(C(=O)Nc2cccc(C#N)c2N2CCC(N3CCOCC3)CC2)cnn1-c1ccc([N+](=O)[O-])cc1` displayed a melting point of 265 °C.

Regarding `O=COCCCCCC(=O)NC[C@@H]1CN2C(=O)C[C@H]2O1` (racemic), the melting point lay in the range of 61.5 to 63 °C. As for `CCS(=O)(=O)NCCCCn1c(C)nc2c(N)nc3ccccc3c21`, the figure is 211 to 212 °C; as for `COC(=O)c1ccc(OC)nc1F`, 81 to 82 °C; as for `NC(=O)NN=Cc1ccc(OCC2CCCCC2)cc1`, 218 to 219 °C. To `COc1ccc(NC(=O)c2ccc(C(C)(C)C)cc2)c([N+](=O)[O-])c1` belongs 103 to 107 °C; to `CCCCSc1ccc(C(=O)Nc2ccc3cc(CN4CCCC4)cnc3c2C)cc1`, 147 °C. As for `O=[N+]([O-])c1ccc(-n2cnc(CO)c2)c(F)c1`, the figure is 157 to 159 °C. In turn, `CC1CCCC(C)N1c1cc(F)cc(C(=O)Nc2ccc(OCCN3CCOCC3)c3ccccc23)c1` (configuration not stated) had a melting point of 105 to 107 °C.

Turning to `COc1cc(C)c(C)cc1NC(=O)N1CCN(c2cccc(O)c2)CC1`, the melting point lay in the range of 177 to 178 °C.

`Cc1ccc(-c2cc(F)c(F)cc2-c2ccc(S(N)(=O)=O)cc2)cc1Cl`: the melting point fell in the range of 139 to 140 °C. To `CN1CCN(C2=NC(=O)C(=Cc3cccc(-c4cc(F)c(O)c(C56CC7CC(CC(C7)C5)C6)c4)c3)S2)CC1` belongs 226 to 228 °C; to `CCC(=O)c1cc(SC)cc(CNC(=O)CCl)c1O`, 202 to 204 °C; to `CCOC(=O)CCc1c[nH]c2cnc(-n3cnnc3)cc12`, 215 to 218 °C. As for `N#CC(=Cc1cc(O)c(O)c(Cl)c1)C(=O)Nc1cccc(Cl)c1`, the figure is more than 300 °C; as for `C/C(=C\C(C)O)c1ccc(-c2ccccc2)c(Cl)c1` (configuration not stated), 86 °C; as for `CC(=O)C12CCC(CC1)CC2(C)O` (configuration not stated), 43 to 44 °C. To `Cn1cc(C(=O)O)c(=O)c2cc3cc(F)c(N4CCNC(c5cccs5)C4)cc3nc21` (racemic) belongs 268 to 270 °C; to `COc1ccc(CNc2nc(N)c(C(=O)c3cc(C)sc3C)s2)cc1`, 175 °C; to `O=C1OC(c2cccc3ccccc23)=NC1=Cc1ccccc1`, 134 to 137 °C. For `Cc1nc(Cl)c2c(n1)c(C)nn2CC(F)(F)F`, the melting point was determined as 70 °C. To `O=C(c1cc(-c2ccccc2)c(=O)n2c1-c1ccccc1C2)N1CC(O)C1` belongs 238 to 242 °C. In turn, `COc1cc(-c2cc(=O)c3ccc(OCC4CO4)cc3o2)cc(OC)c1OC` (configuration not stated) registered a melting point of 187 to 188 °C. As for `CCOC(=O)c1ccc(N(C)Cc2ccc3nc(C)[nH]c(=O)c3c2)s1`, the figure is more than 200 °C; as for `N#Cc1c(N2CCN(C(=O)c3cccs3)CC2)c2cc(Cl)ccc2n(Cc2ccccc2)c1=O`, 266 °C; as for `COc1cc2nc(S)[nH]c2cc1OC`, 278 to 280 °C. As for `COc1ccc(CNC(N)=S)cc1OCc1ccccc1`, the figure is 179 to 181 °C; as for `CC(=O)c1cc(C#N)c(=O)[nH]c1-c1ccccc1`, 259 to 261 °C.

`C=CCN(CC=C)c1nc(NC(=O)OCc2ccccc2)n2oc(=O)nc2n1` came in with a melting point of 171 to 173 °C. As for `OC1(CNCc2ccccc2)CCN(CCCc2c[nH]c3ccc(-n4cnnc4)cc23)C1` (configuration not stated), the figure is more than 61 °C; as for `C#CC(C)Oc1cc(Cc2cnc(N)nc2N)cc(OC)c1OC` (configuration not stated), 153 to 155 °C; as for `CC(C)(C)c1ccc(S(=O)(=O)Nc2nc(-c3ncccn3)nc(OCCOc3ncc(Br)cn3)c2-c2cccs2)cc1`, 222 to 224 °C. As for `O=c1[nH]c(=O)n(C2OC(CBr)C(O)C2F)cc1C=CBr` (configuration not stated), the figure is 223 °C; as for `COC(=O)CSc1ncnc(N2CCc3ccccc3CC2)c1[N+](=O)[O-]`, 113 to 115 °C. Molecule `c1ccc2c(c1)c1ccccc1n2-c1ccc2c(c1)Sc1ccc(-n3c4ccccc4c4ccccc43)cc1S2` registered a melting point of 350 °C. `CSc1ccc(C(O)C#CC2(O)CCCC2)cc1` (configuration not stated) gave a melting point of 118 to 120 °C.

Turning to `COCC(C)(C)C(=O)O[C@H]1C[C@H](O)C=C2C=C[C@H](C)[C@H](CC[C@@H]3C[C@@H](O)CC(=O)O3)[C@H]21`, the melting point was 140 to 142 °C. To `CN1C(=O)N(c2ccccc2Br)Cc2cnc(Nc3ccc4c(c3)OCC(CO)O4)nc21` (configuration not stated) belongs 156 to 158 °C; to `CCOC(=O)Nc1ccc(NC(=O)OCc2ccccc2)c(O)c1`, 190 °C; to `COc1cc2c(cc1OC)C(C=Cc1ccc(N)cc1)=NNC(C)C2` (configuration not stated), 152 to 154 °C. To `CC#CCn1c(Cl)nc2c1c(=O)n(C)c(=O)n2C` belongs 105 to 108 °C; to `CCOC(=O)C1CCCN(C(=O)C2CCC(Nc3nccc(-n4ccc5c(OCCCS(C)(=O)=O)cccc54)n3)CC2)C1` (configuration not stated), 175 to 177 °C; to `COc1cc2ncnc(N3CCN(C(=S)NC4CCOC4=O)CC3)c2cc1OC` (configuration not stated), 147 to 148 °C. As for `Cc1ccc(Cl)c(Nc2ccccc2C(N)=O)c1Cl`, the figure is 185 to 187 °C; as for `O=C1CC(CO)N1c1ccccc1` (configuration not stated), 100 to 102 °C; as for `Cc1cc(COc2ccc(CC(=O)O)cc2Cl)ccc1OC(C)C`, 104 to 105 °C. For the molecule `O=c1[nH]c2cc(Cl)ccc2c(=O)n1S(=O)(=O)c1c(Cl)cccc1Cl`, the melting point was 260 to 261 °C.

Consider `CCOC(=O)C=Cc1cccc(OCc2nc(-c3ccccc3)oc2C)c1`, for which the melting point fell in the range of 91 to 92 °C. `CCOC(=NC(=O)c1ccc(Cl)cc1Cl)N1Cc2ccccc2-c2ccccc2C1` had a melting point of 158 to 159 °C. As for `O=C(O)c1cn(C2CC2)c2c(Br)c(F)c(F)cc2c1=O`, the figure is 224 to 226 °C. Molecule `CCOC(=O)c1cc(=O)c(Oc2ccccc2OC)co1` registered a melting point of 74 to 76 °C. The molecule `CCCn1nc(-c2ccc(O)cc2)c2cccc(-c3ccc(F)cc3)c21` returned a melting point of 110 to 111 °C. To `CN(CCCSc1ccncc1)C(=O)c1cccs1` belongs 72 to 72.5 °C.

The molecule `CCc1nc(/C=C\c2cn(-c3ccccc3)nc2OCc2ccc(OCc3nc(-c4cccc(C(=O)OC)c4)oc3C)c(OC)c2)cs1` registered a melting point of 125 to 126 °C. To `COc1cccc(CNC(CCCCCC(=O)O)C(C)C)c1` (configuration not stated) belongs 64 to 67 °C. To `C/C(=C\F)CN1C(=O)c2ccccc2C1=O` belongs 57 to 58 °C; to `CS(=O)(=O)c1ccc(/C(=C2\CCSC2=O)c2ccc(Cl)cc2)cc1`, 183 °C; to `Cc1c(Br)c2c(c(C)c1NC(=O)CC(C)(C)C)C(c1ccc(C(C)C)cc1)CO2` (configuration not stated), 118 to 119 °C. As for `Cn1c(=O)c2c(ncn2CCN2CC=C(c3c[nH]c4ccccc34)CC2)n(C)c1=O`, the figure is 196 °C; as for `COc1ccc(-c2ccccc2)c2sc(-c3ncc[nH]3)nc12`, 205 to 206 °C; as for `CC1CC2C3CCC4=CC(=O)C=CC4(C)C3=CCC2(C)C1(O)C(=O)CO` (configuration not stated), 216 to 218 °C.

In turn, `COC(=O)C=Cc1cc(F)cc(Br)c1` gave a melting point of 95 to 96 °C.

With `CC(=O)NCc1ccc2[nH]cc(C=O)c2c1`, the melting point is 182 to 184 °C. As for `CCCN1CCN(C2=Nc3cc(Br)ccc3N3CCc4cccc2c43)CC1`, the figure is 134 to 136 °C; as for `Cc1ccc(S(=O)(=O)OC(C#N)(c2ccccc2)C(F)(F)F)cc1` (configuration not stated), 70 °C. To `Cc1cc(-c2ccc(Cl)c(Cl)c2)nc(-c2cccc(-c3ccc(S(N)(=O)=O)s3)c2)n1` belongs 238 °C.

`CN(C)C=C(C#N)CNC=O` registered a melting point of 90 °C. `COCCOc1cc(N(C)S(=O)(=O)c2nccn2C)c2[nH]c(C(=O)O)cc2c1` came in with a melting point of 174 to 175 °C. `COc1ccc(C(=C2CCCCC2)c2ccc(OC)cc2)cc1` yielded a melting point of 106 to 107 °C. As for `CCOC(=O)C1=C(C)Nc2nc(N3CCOCC3)nc(N3CCOCC3)c2C1c1cccnc1` (configuration not stated), the figure is 229 °C; as for `CCC(=O)NCCC1=C(C(C)C)Cc2cnc3c(c21)CCO3`, 168 to 170 °C. In turn, `CN1C(=O)CC[C@]2(C)c3ccc(-c4cccc5cnccc45)cc3CC[C@@H]12` came in with a melting point of 182 to 184 °C. To `CNc1nc(-c2cncc(-c3ccccc3)c2)c2cc(OC)c(OC)cc2n1` belongs 177 to 179 °C.
